In one data set the target is T1, GlTgs (Giardia duodenalis, UniProt A8BW33).
T1 sequence (A8BW33 1-258): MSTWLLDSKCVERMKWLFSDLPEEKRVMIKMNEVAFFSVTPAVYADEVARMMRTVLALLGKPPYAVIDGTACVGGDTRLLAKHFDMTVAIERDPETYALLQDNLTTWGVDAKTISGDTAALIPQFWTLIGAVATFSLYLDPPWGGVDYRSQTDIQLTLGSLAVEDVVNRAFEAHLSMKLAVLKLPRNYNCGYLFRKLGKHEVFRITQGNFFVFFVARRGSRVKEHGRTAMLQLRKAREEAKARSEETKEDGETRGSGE
Put plainly: 3H methyl transfer, PEI-cellulose TLC. It counts as biochemical. Conditions: 0.1 mM m7GDP, 5 μM [methyl-3H]AdoMet, 37 °C; single methylation to DMG.

The next data set concerns the target T2, TvTgs (Trichomonas vaginalis, UniProt A2DM16).
T2 sequence (A2DM16 1-280): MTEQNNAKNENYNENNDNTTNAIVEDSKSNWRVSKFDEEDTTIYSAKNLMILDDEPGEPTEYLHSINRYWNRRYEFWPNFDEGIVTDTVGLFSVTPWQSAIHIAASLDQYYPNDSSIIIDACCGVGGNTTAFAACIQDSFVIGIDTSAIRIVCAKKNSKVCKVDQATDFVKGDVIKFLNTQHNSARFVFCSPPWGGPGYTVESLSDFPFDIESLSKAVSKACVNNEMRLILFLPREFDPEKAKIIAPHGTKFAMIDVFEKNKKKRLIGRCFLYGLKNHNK
Put plainly: radiometric 3H methyl transfer, DEAE filter. In kind it is biochemical.

Substrate in data set [1]: C[n+]1cn([C@@H]2O[C@H](COP(=O)(O)OP(=O)(O)O)[C@@H](O)[C@H]2O)c2nc(N)[nH]c(=O)c21
Put plainly: radiometric 3H methyl transfer, DEAE filter. The following applies: [methyl-3H]AdoMet co-substrate, pH 7.5, 37 °C. In kind it is biochemical, Trichomonas vaginalis.

Substrate in data set [2]: C[n+]1cn([C@@H]2O[C@H](COP(=O)(O)OP(=O)(O)OP(=O)(O)O)[C@@H](O)[C@H]2O)c2nc(N)[nH]c(=O)c21
As to the kind of experiment: radiometric 3H methyl transfer, DEAE filter. Conditions: [methyl-3H]AdoMet co-substrate, pH 7.5, 37 °C. In kind it is biochemical, Trichomonas vaginalis.

The values that follow come from article PMC2588526 (Nucleic Acids Research, 2008).

As for `C[n+]1cn([C@@H]2O[C@H](COP(=O)(O)OP(=O)(O)O)[C@@H](O)[C@H]2O)c2nc(N)[nH]c(=O)c21` [m^7GDP], the “3H methyl transfer, PEI-cellulose TLC” value at GlTgs was “TvTgs (Tv), GlTgs (Gl) and SpTgs (Sp) were compared side by side”.
Consider `Nc1ncnc2c1ncn2[C@@H]1O[C@H](CSCC[C@H](N)C(=O)O)[C@@H](O)[C@H]1O` [AdoHcy], for which the IC50 against TvTgs was roughly 250 µM.

B1: TvTgs (Trichomonas vaginalis G3) (protein)
chain: MTEQNNAKNENYNENNDNTTNAIVEDSKSNWRVSKFDEEDTTIYSAKNLMILDDEPGEPTEYLHSINRYWNRRYEFWPNFDEGIVTDTVGLFSVTPWQSAIHIAASLDQYYPNDSSIIIDACCGVGGNTTAFAACIQDSFVIGIDTSAIRIVCAKKNSKVCKVDQATDFVKGDVIKFLNTQHNSARFVFCSPPWGGPGYTVESLSDFPFDIESLSKAVSKACVNNEMRLILFLPREFDPEKAKIIAPHGTKFAMIDVFEKNKKKRLIGRCFLYGLKNHNK
Turning to B1, the results for the Km in data set [1] and in data set [2] were 250 +/– 30.7 μM and 1.59 +/– 0.205 mM, respectively.
